Values joined by “and” are separate entries in the source; they are usually repeats but may differ in a detail not shown here. Identical values can stand only once. Like-named read-outs stand apart in the source and are kept apart here.
Assays:
[1] = molecular target: HIV-1 protease (Human immunodeficiency virus type 1 group M subtype B, UniProt P04585); test: Fluorescence HIV-1 Protease Inhibitor Assay (Pandex); type: biochemical; parameters: made in house; host or cells: E. coli K12 L507/pHP10D (NRRL B-18560)
[2] = system: Viral SN123 infected CEM cells; conditions: Human immunodeficiency virus 1, CCRF-CEM, values in parentheses are 35B in same assay
Protocol: Purpose: To determine IC50 CC50 for compounds:
Media A [1% DMSO] (100 microliters DMSO+9.9 ml media A)
CEM cells @ [1×10^4] cells/ml (4 plate=40 ml) (6 plate=60 ml)
(need 70 microliters of each)
A-D at [10 mM] in 100% DMSO
4 or 6 u-bottom 96-well plates
4 flat bottom 96-well plates for dilutions
8-10 boxes of sterile costar tips
Approximately 10 reagent trays
1000 cells/well=1×10^4 cells/ml=1000 cells/100 microliters 200 microliters=total volume in a well
Cell Preparation and Plating of Cells, Media A and Media A (1% DMSO)
a. Number a 96-well tissue culture plate for each compound tested, one for a control plate, and one for the control compound.
b. Count cells on hemacytometer and resuspend them in 40 ml or 80 ml of Media A at a concentration of [1×10^4]0 cells/ml.
Counting Cells on a Hemacytomer:
Label two 1.8 ml nuc tubes 1 and 2.
Put 0.5 ml of well mixed CEM cells (in growth phase) in tube 1.
Put 50 micoliters PBS and 40 microliters of trypan blue into tube 2.
Mix up the cells in tube 1 then remove 10 microliters of cells and put them into tube 2.
Mix well in tube 2, then remove 10 microliters of the stained cells and put them on the hemacytometer.
Count the number of cells in the center square of the hemacytometer with the microscope set on 10×.
The concentration of the stock CEM's in cells/ml is as follows:
Cells counted×1×10^5=Concentration of CEM's in [cells/ml].
c. Add 200 microliters Media A to: A1 of places 2-6. These are Blanks. A4-H4 of plate 1. These are Blanks.
d. Add 5 microlicers Media A to all wells of Rows A-D of plates 2-6 except A1 (the top half of each plate).
e. Add 50 microliters of Media A to wells A1-D3 of Plate 1 (the top half of the plate).
f. Add 50 microliters Media A[l% DMSO] to all wells of Columns 1-3 of plate 1.
This puts 1000 cells/well.
h. Put plates in an incubator while doing drug dilutions.
Preparation Control and Test Drugs
(1) Put 60 microliters of DMSO into all wells of Columns 2-12, Rows A-E.
(3) Put 70 microliters of A [10 mM] at 100% DMSO into well B1.
(4) Put 70 microliters of B [10 mM] at 100% DMSO into well C1.
(5) Put 70 microliters of C [10 mM] at 100% DMSO into well D1.
(6) Put 70 microliters of D [10 mM] at 100% DMSO into well E1.
Change tips before each dilution.
(1) In rows A-E of another plate make a row for the first 1:10 dilution to correspond to each compound's 100% DMSO row.
A into Row B for the first 1:10 dilution.
B into Row C for the first 1:10 dilution.
C into Row D for the first 1:10 dilution.
D into Row E for the first 1:10 dilution.
(2) Put 180 microliters of media A into all wells of rows A-E corresponding to the 100% DMSO rows. 2.5 ml needed per row.
(3) Remove 20 microliters from all wells of each row of the 100% DMSO rows and transfer it to the corresponding 1:10 row.
(1) Make a plate for every 3 compounds to be tested.
Use 20 ml of media A per plate.
(3) Transfer 25 microliters of each compound from the row in the 1:10 dilution to the corresponding two rows on the 1:100 dilution plate changing tips before each transfer.
Addition of Viral SN123 to Plates
a. Thaw Sn123 in 37° C. water bath for approximately 10 minutes.
b. Dilute Sn123 1:16 by adding 1 ml of Sn123 to 15 ml of media A.
c. Add 50 microliters of Sn123 [1:16] to wells E1-H12 of plates 2-6 and to wells E1-H3 of plate 1.
Addition of Drugs to Plates
a. Add 50 microliters of the control and test drugs from the rows in the 1:100 dilution plates to the appropriate rows in the final plates (changing tips before each transfer). One row in the 1:100 plate will do 4 rows in the final plate. Leave A1 blank.
b. Incubate all plates 7 days at 37° C. 5% CO2.
c. Do Xtt protocol on day 7 as follows:
d. Preparation of Xtt/PMS Solution: (4 plate=20 ml) (6 plate=30 ml)
100 microliters [100 mM] PMS+4.9 ml PBS=PMS at [2 mM]
(2) Heat 500 ml of H2O in microwave for 5 minutes on high.
(3) Put 20 or 30 ml of phenol red RPMI in a 50 ml centrifuge tube.
(4) Put the RPMI in the beaker of hot water.
(5) Add 20 or 30 mg of XTT to the warmed up RPMI.

[3] = system: HIV-1 isolates IIIB and/or RF in MT-2 cells; test: SRI primary anti-HIV screen, MTT assay of inhibition of HIV-induced cell killing in MT2 cells; type: cell-based; conditions: MT2 cells
Excerpt: I. Primary Drug Screening of Anti-HIV Compounds at Southern Research Institute (SRI) (Results recorded in Table 1 are designated “SRI CEM (ng/ml)” or “SRI MT2 (ng/ml)”)
(§1) A. Principle of MTT Assay:
(§2) SRI has an established program for the primary antiviral analysis of compounds in microtiter assays which measures the ability of a selected compound to inhibit HIV-induced cell killing. This assay involves the conversion of the tetrazolium dye MTT to a colored formazan product by mitochondrial enzymes in metabolically active cells. This assay system is used at SRI to screen over 30,000 compounds per year. Briefly, the assay involves the infection of CEM or MT2 cells in round bottom 96-well plates. The compound of interest is added just prior to infection. Following 6 days of incubation at 37° C. the plates are stained with MTT. The results of the assay are quantitated spectrophotometrically on a Molecular Devices Vmax plate reader. The data are analyzed by linear regression utilizing an in-house software program to calculate antiviral activity (IC25, IC50, IC95) and toxicity (TC25, TC50, TC95) as well as other values.
(§3) Primary antiviral assays are routinely performed in CEM or MT-2 cells.
(§4) B. Standard Screening Assays in CEM and MT-2 Cells
(§5) 1. Compound dilution and delivery to the plates
Drugs are solubilized in the appropriate vehicle such as distilled water or DMSO if necessary. Latex gloves, lab coats and masks are used during all phases of the handling process to prevent exposure to potentially harmful agents. The drug is prepared at the appropriate concentration and stored at −20° C. until used by the screening laboratory. The first dilution of each compound is made in a dilution tube with medium to yield a concentration two-fold that of the highest test concentration. Sterile titer tubes are then used to make serial one half-log dilutions of each compound. Following drug dilution, the diluted compound is added to the appropriate well of a 96-well microtiter plate. […] When testing includes only six dilutions, two drugs can be assayed on a single microtiter plate. The drugs are added to the plate in a final volume of 100 microliters.
(§6) During the time the drug dilutions are prepared, cells are washed and counted. Viability is monitored by trypan blue dye exclusion and assays are not performed if the viability falls below 90%. Cells are maintained in an exponential growth phase and are split 1:2 on the day prior to assay to assure exponential growth rate.
(§7) For the primary screen, the cell lines utilized are CEM and MT-2. Unless otherwise indicated, the medium used is RPMI 1640 with 10% heat-inactivated fetal calf serum (FBS), glutamine and antibiotics.
(§8) Cells are propagated at 37° C. in an atmosphere of 5% CO2 in air. The virus employed for this work is HIV-1 isolates IIIB and/or RF, which are prepared by an acute infection process.
(§9) Briefly, virus-infected cells are pelleted on a daily basis beginning at three days post-infection until the virus has killed all of the cells in the culture. Reverse transcriptase activity and p24 ELISA are used to identify pools with the greatest amout of virus.
(§10) These 24-hour harvests are pooled, filtered and frozen at −90° C. Prior to use in the assay, the infectious pool of virus is titered on all available cell lines in order to determine the amount of virus required in the antiviral assay.
In general, pools produced by the acute infection method require the addition of one microliter of infectious virus per well resulting in the screening of drugs at a multiplicity of infection of 0.01. In this manner, enough virus is prepared and frozen to complete over one thousand microtiter plates, allowing the testing of up to two thousand compounds from a single stock of infectious virus. The use of a single stock of virus for a long period of testing has very favorable effects on the repeatability of the assay systems. […]

[4] = system: HIV-1 isolates IIIB and/or RF in CEM cells; test: SRI primary anti-HIV screen, MTT assay of inhibition of HIV-induced cell killing in CEM cells; type: cell-based; conditions: CEM cells
Protocol: as §1
as §2, with “This” for “SRI has an established program for the primary antiviral analysis of compounds in microtiter assays which measures the ability of a selected compound to inhibit HIV-induced cell killing. This”
as §3, §4, §5
Drugs are solubilized in the appropriate vehicle such as distilled water or DMSO if necessary. Latex gloves, lab coats and masks are used during all phases of the handling process to prevent exposure to potentially harmful agents. The drug is prepared at the appropriate concentration and stored at −20° C. until used by the screening laboratory. The first dilution of each compound is made in a dilution tube with medium to yield a concentration two-fold that of the highest test concentration. Sterile titer tubes are then used to make serial one half-log dilutions of each compound. Following drug dilution, the diluted compound is added to the appropriate well of a 96-well microtiter plate. Up to 12 dilutions can be assayed conveniently in triplicate on a single plate with all appropriate controls including cell control, virus control, toxicity control, drug color control, medium control and plastic (background) control. When testing includes only six dilutions, two drugs can be assayed on a single microtiter plate. The drugs are added to the plate in a final volume of 100 microliters.
as §6, §7, §8, §9, §10
In general, pools produced by the acute infection method require the addition of one microliter of infectious virus per well resulting in the screening of drugs at a multiplicity of infection of 0.01. In this manner, enough virus is prepared and frozen to complete over one thousand microtiter plates, allowing the testing of up to two thousand compounds from a single stock of infectious virus.
Virus infection of the CEM and MT-2 cells for the antiviral assay is carried out in a bulk infection process.

[5] = normalized to positive control (=1.0), * = a calculated average, read-out: Fluorescence Assay IC50 in ng/mL (converted)
[6] = value as run, 35B value of the same run in footnote or parentheses, read-out: Pandex IC50 ng/ml (converted)
[7] = normalized to positive control (=1.0), * = a calculated average
[8] = value as run, 35B value of the same run in footnote or parentheses

CC(C)(C)NC(=O)c1ccccc1CC(O)C(CSc1ccc2ccccc2c1)NC(=O)c1ccc(N)cc1Cl (stereo not drawn) [Example 71, [2′R-(2′R*,3′S*)]-N-t-Butyl-2-[2′-hydroxy-3′-naphth-2-ylthiomethyl-4′-aza-5′-oxo-5′-(2″-chloro-4″-aminophenyl)pentyl] benzamide]
melting point: 102 to 104 °C | IC50 [1, 5]: 312 nM

Cc1c(C(=O)NC(CSc2ccc3ccccc3c2)C(O)Cc2ccccc2C(=O)NC(C)(C)C)ccc(O)c1O (stereo not drawn) [Example 70, [2′R-(2′R*,3′S*)]-N-t-Butyl-2-[2′-hydroxy-3′-naphth-2-ylthiomethyl-4′-aza-5′-oxo-5′-(2″-methyl-3″,4″-dihydroxyphenyl)pentyl] benzamide]
melting point: 121 to 123 °C | IC50 [1, 5]: 183 nM

CC(C)(C)NC(=O)c1ccccc1C[C@@H](O)[C@@H](CSc1ccc2ccccc2c1)NC(=O)c1cccc2[nH]ccc12 [Example 62, [2′R-(2′R*,3′S*)]-N-t-Butyl-2-[2′-hydroxy-3′-naphth-2-ylthiomethyl-4′-aza-5′-oxo-5′-(indol-4″-yl)pentyl] benzamide]
melting point: 109 to 110 °C | IC50 [1, 5]: 350 nM

CC(C)(C)NC(=O)c1ccccc1CC(O)C(CSc1ccc2ccccc2c1)NC(=O)c1cc(N)ccc1Cl (stereo not drawn) [Example 55, [2′R-(2′R*,3′S*)]-N-t-Butyl-2-[2′-hydroxy-3′-naphth-2-ylthiomethyl-4′-aza-5′-oxo-5′-(2″-chloro-5″-aminophenyl)pentyl] benzamide]
melting point: 109 to 110 °C | IC50 [1, 5]: 194 nM

CC(C)(C)NC(=O)c1ccccc1C[C@@H](O)[C@@H](CSc1ccc2ccccc2c1)NC(=O)c1cccc2c1CCN2 [Example 65, [2′R-(2′R*,3′S*)]-N-t-Butyl-2-[2′-hydroxy-3′-naphth-2-ylthiomethyl-4′-aza-5′-oxo-5′-(indolin-4″-yl)pentyl] benzamide]
melting point: 83 to 84 °C | IC50 [1, 5]: 687 nM

Cc1c(OP(=O)(O)O)cccc1C(=O)N[C@@H](Cc1ccccc1)[C@H](O)CN1C[C@H]2CCCC[C@H]2C[C@H]1C(=O)NC(C)(C)C (relative stereo) [Example 78, [3S-(3R*, 4aR*, 8aR*, 2′S*, 3′R*)]-2-[2′-Hydroxy-3′-phenylmethyl-4′-aza-5′-oxo-5′-(2″-methyl-3″-Hydroxyphenyl)pentyl]decahydroisoquinoline-3-N-t-butyl carboxamide 3″-dihydrogen phosphate]
IC50 ([2]; read-out: Whole cell IC50 nM, CEM cells): 8.64 nM | IC90 ([2]; read-out: Whole cell IC90 nM, CEM cells): 66.5 nM | IC50 [1, 6]: 3240 nM | SRI MT2 IC50 [3]: 0.08 µg/mL

Cc1c(N)cccc1C(=O)NC(CSc1ccc2ccccc2c1)C(O)Cc1ccccc1C(=O)NC(C)(C)C (stereo not drawn) [Example 42, [2′R-(2′R*,3′S*)]-N-t-Butyl-2-[2′-hydroxy-3′-naphth-2-ylthiomethyl-4′-aza-5′-oxo-5′-(2″-methyl-3″-aminophenyl)pentyl] benzamide]
melting point: 105 to 106 °C | IC50 [1, 5]: 191 nM

CC(C)(C)NC(=O)c1ccccc1CC(O)C(CSc1ccc2ccccc2c1)NC(=O)c1cccc(N)c1Br (stereo not drawn) [Example 45, [2′R-(2′R*,3′S*)]-N-t-Butyl-2-[2′-hydroxy-3′-naphth-2-ylthiomethyl-4′-aza-5′-oxo-5′-(2″-bromo-3″-aminophenyl)pentyl] benzamide]
melting point: 110 to 112 °C | IC50 [1, 5]: 214 nM

CC(C)(C)NC(=O)[C@@H]1C[C@@H]2SCC[C@@H]2CN1C[C@@H](O)[C@H](CSc1ccccc1)NC(=O)C1CCS(=O)(=O)C1 (relative stereo) [Example 89, [6S-(6R*, 3aS*, 7aR*, 2′S*, 3′S*)]-2-[2′-Hydroxy-3′-phenylthiomethyl-4′-aza-5′-oxo-5′-(tetrahydrothieno-3″-yl-1″,1″-dioxide)pentyl]-octahydrothieno[3,2-c]pyridine-6-N-t-butyl carboxamide]
CEM IC95 [4]: 98 nM | IC50 [1, 6]: 0.856 nM

Cc1ccc([N+](=O)[O-])cc1C(=O)NC(CSc1ccc2ccccc2c1)C(O)Cc1ccccc1C(=O)NC(C)(C)C (stereo not drawn) [Example 68, [2′R-(2′R*,3′S*)]-N-t-Butyl-2-[2′-hydroxy-3′-naphth-2-ylthiomethyl-4′-aza-5′-oxo-5′-(3″-nitro-6″-methylphenyl)pentyl] benzamide]
melting point: 85 to 88 °C | IC50 [1, 5]: 17100 nM

CN1CCc2c(cccc2C(=O)N[C@@H](CSc2ccc3ccccc3c2)[C@H](O)Cc2ccccc2C(=O)NC(C)(C)C)C1 (relative stereo) [Example 59, [2′R-(2′R*,3′S*)]-N-t-Butyl-2-[2′-hydroxy-3′-naphth-2-ylthiomethyl-4′-aza-5′-oxo-5′-[2-N′(methyl)-1″,2″,3″,4″-tetrahydroisoquinolin-5″-yl)pentyl] benzamide]
melting point: 110 to 113 °C | IC50 [1, 5]: 587 nM

CC(C)(C)NC(=O)C1CC2CCCCC2CN1CC(O)C(Cc1ccccc1)NC(=O)c1cccc(Cl)c1Cl (stereo not drawn) [Example 14, [3S-(3R*,4aR*,8aR*,2′S*,3′R*)]-2-[2′-Hydroxy-3′-phenylmethyl-4′-aza-5′-oxo-5′-(2″,3″-dichloro-phenyl)pentyl] decahydroisoquinoline-3-N-t-butylcarboxamide]
Fluorescence Assay IC50 [1, 7]: 0.101 µg/mL | Pandex IC50 ng/ml [1, 8]: 48.7^d ng/ml | SRI MT2 IC50 [3]: 1.61 µg/mL and 1.29 µg/mL

Cc1cnccc1C(=O)NC(CSc1ccccc1)C(O)CN1CCN(Cc2cccnc2)CC1C(=O)NC(C)(C)C (stereo not drawn) [Example 35, [2S-(2R*,2′S*,3′S*)]-1-[2′-Hydroxy-3′-phenylthiomethyl-4′-aza-5′-oxo-5′-(3″-methyl-pyrid-4″-yl)[pentyl]-4-(pyrid-3′″-ylmethyl)piperazine-2-N-t-butylcarboxamide]
Fluorescence Assay IC50 [1, 7]: 0.0317 µg/mL | Pandex IC50 ng/ml [1, 8]: 73^c ng/ml | SRI MT2 IC50 [3]: 0.519 µg/mL and 0.368 µg/mL

Reference: patent publication US20030216569A1, “Method of making HIV protease inhibitors” (priority 1993, published 2003)
